The results in this text go back to publication PMC11861906, “Structural basis for lipid-mediated activation of G protein-coupled receptor GPR55” (Nature Communications, 2025).

This test has as its target thromboxane A2 receptor (TBXA2R) (Gα12) (Homo sapiens, UniProt P21731). The experiment in a line: BRET² G protein dissociation assay, TBXA2R with Gα12. In kind it is cell-based. The following applies: for Mean (plotted), G protein dissociation BRET² signal: TBXA2R-G12, Fig. 5c source data. The procedure:
G protein dissociation assays were performed according to the original protocols of the TRUPATH BRET² assay[47],[87] but with subtle modifications as previously described[61],[88],[89]. All reagents and cells were obtained from Thermo Fisher Scientific unless indicated otherwise. The coding sequences for the G protein biosensors[47] (Gα12-Rluc8, Gα13-Rluc8, wt Gβ3, and Gγ9-GFP), the wt GPR55, the construct used for cryo-EM (with GFP bearing a G67A mutation to disrupt fluorescence properties[48] for BRET² assays), GPR55 binding pocket mutants (G152^4.56F, G152^4.56W, N171^ECL2Q, N171^ECL2A, T176^5.33A, R253^6.62A), and the wt TBXA2R were codon-optimized for Homo sapiens, gene-synthesized, and sub-cloned into pcDNA^TM3.1(+) between NheI and HindIII restriction sites by GeneArt (Thermo Fisher Scientific). […] Freshly grown cells were washed with Dulbecco’s Balanced Salt Solution (DPBS, cat. #14200075) and detached using trypsin-ethylenediaminetetraacetic acid (trypsin-EDTA) (cat. #25300-062). Then, the cells were reconstituted to 500,000 cells per mL with fresh medium, and 1,000,000 cells were seeded into each well of a 6-well plate. After 3 h incubation at 37 °C and 5% CO2, adherent cells were transfected with 600 ng DNA (1:1:1:1 ratio of plasmid DNA for GPR55, wt Gβ3, Gγ9-GFP, and Gα12-Rluc8 or Gα13-Rluc8). Plasmid DNA was mixed with 1.5 µL Lipofectamine^TM 2000 (cat. #11668027) in Opti-MEM^TM medium (cat. #31985062) and incubated for 20 min. Then, the mixture was added to each well of the 6-well plate following 24 h incubation at 37 °C and 5% CO2. Transfected cells were washed with DPBS, detached using EDTA (Versene, cat. #15040066), and reconstituted into fresh medium at 500,000 cells mL^−1. From this suspension, 50,000 cells were seeded into each well of a white-bottom 96-well plate (Nunc^TM MicroWell^TM 96 wells, cat. #136101) following overnight incubation at 37 °C and 5% CO2. Then, the adherent cells were washed with assay medium [Hank’s balanced salt solution (HBSS, cat. #14065056) plus 20 mM HEPES pH 7.4 (cat. #15630056)] and finally reconstituted into 50 µL of the same medium. […] Methoxy e-Coelenterazine was used as luciferase substrate (Prolume Purple, NanoLight Technology, cat. #369), reconstituted at 1 mM in methanol and diluted to 37.5 µM with assay buffer (7.5 µM final assay concentration). The assay was started by the addition of 20 µL luciferase substrate to each well of the assay plate using a Multidrop^TM Combi reagent dispenser (Thermo Fisher Scientific), followed by 5 min incubation at room temperature. Then, 30 µL of agonist dilutions or DMSO control was added (final DMSO concentration 1.5%), followed by an additional 5 min incubation at room temperature. BRET² measurements were performed with a PHERAstar® FSX microplate reader (BMG LABTECH) using a BRET² filter (donor emission 370–450 nm, acceptor emission 500–530 nm) at the maximum fluorescence gain of 3600. BRET² ratios were calculated by dividing GFP emission signals from Rluc8 emission counts. Buffer-DMSO controls were subtracted from each data point to calculate ΔBRET² ratios. The half-maximal effective concentration (potency, EC50) and maximal effect (efficacy, Emax) were determined by sigmoidal dose-response curve fit with variable slope.

Sequence of thromboxane A2 receptor (TBXA2R) (Gα12) (P21731 whole entry, species assumed): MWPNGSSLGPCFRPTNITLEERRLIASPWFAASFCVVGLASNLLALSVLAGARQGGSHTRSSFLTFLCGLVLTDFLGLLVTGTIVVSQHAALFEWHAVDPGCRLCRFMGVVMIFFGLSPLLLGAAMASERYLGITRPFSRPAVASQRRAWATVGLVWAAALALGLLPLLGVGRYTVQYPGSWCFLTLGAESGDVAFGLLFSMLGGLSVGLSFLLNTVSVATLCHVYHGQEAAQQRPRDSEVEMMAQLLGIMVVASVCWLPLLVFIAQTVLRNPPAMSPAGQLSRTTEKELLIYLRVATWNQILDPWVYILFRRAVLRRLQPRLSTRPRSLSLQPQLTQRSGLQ
Sequence of thromboxane A2 receptor (TBXA2R) (Gα12) (Q03113 whole entry partner, species assumed): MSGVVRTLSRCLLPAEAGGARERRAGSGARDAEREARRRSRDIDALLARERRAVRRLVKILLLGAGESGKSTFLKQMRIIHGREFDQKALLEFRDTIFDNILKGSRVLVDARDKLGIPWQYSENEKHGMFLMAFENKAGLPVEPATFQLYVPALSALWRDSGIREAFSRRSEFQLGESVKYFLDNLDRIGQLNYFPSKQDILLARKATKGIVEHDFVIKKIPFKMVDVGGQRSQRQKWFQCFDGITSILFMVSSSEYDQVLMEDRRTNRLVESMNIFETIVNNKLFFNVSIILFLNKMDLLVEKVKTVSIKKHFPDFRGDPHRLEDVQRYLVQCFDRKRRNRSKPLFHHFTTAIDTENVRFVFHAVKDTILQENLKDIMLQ
Sequence of thromboxane A2 receptor (TBXA2R) (Gα12) (P16520 whole entry partner, species assumed): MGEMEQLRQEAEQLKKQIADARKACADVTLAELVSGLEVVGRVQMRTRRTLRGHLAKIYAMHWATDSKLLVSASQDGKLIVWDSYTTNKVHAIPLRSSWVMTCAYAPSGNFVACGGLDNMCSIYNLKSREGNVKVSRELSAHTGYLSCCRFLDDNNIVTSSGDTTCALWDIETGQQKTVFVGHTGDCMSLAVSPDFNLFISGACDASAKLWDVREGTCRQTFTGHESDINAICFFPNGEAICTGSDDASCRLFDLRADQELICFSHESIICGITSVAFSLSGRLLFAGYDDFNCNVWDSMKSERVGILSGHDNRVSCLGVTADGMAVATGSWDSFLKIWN
Sequence of thromboxane A2 receptor (TBXA2R) (Gα12) (O14610 1-66 partner limits assumed, species assumed): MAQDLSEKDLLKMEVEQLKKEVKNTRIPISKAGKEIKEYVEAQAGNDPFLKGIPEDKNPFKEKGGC

In the case of `Cc1cccc(N2CCN(C(=O)c3cc(S(=O)(=O)N(C)C)ccc3N3CCCC3)CC2)c1C` [ML184, 3-[[4-(2,3-dimethylphenyl)-1-piperazinyl]carbonyl]-N,N-dimethyl-4-(1-pyrrolidinyl)benzenesulfonamide], the “Mean (plotted), G protein dissociation BRET² signal” value (“Mean (plotted)” below) (concentration 300 pM) is 0.004412; the “Mean (plotted)” value (concentration 1e-9 M) is 0.004455; the “Mean (plotted)” value (concentration 3e-9 M) is given as 0.002143; the “Mean (plotted)” value (concentration 1e-8 M) is 0.001783; the “Mean (plotted)” value (concentration 3e-8 M) was determined as 0.001091; the “Mean (plotted)” value (concentration 1e-7 M) is reported as -3.229e-5. The “Mean (plotted)” value by setting is: (concentration 3e-7 M) 0.0009853; (concentration 1e-6 M) 0.004147; (concentration 3e-6 M) 0.0053; (concentration 1e-5 M) 0.009359; (concentration 3e-5 M) 0.007653.
The term EC50 denotes the concentration that produces a half-maximal response. With `CCCCC[C@H](O)/C=C/[C@@H]1[C@@H](C/C=C\CCCC(=O)O)[C@H]2CO[C@@H]1C2` [U-46619], the “Efficacy ± SEM (%)” value (TBXA2, Gα12) is recorded as 100 ± 8%. Besides, the “pEC50 ± SEM” value (TBXA2, Gα12) is on record as 7.62 ± 0.15. Moreover, for the setting “TBXA2R via Gα12, read-out: potency (EC50)”, the EC50 was determined as 24 nM. Further, the “Mean (plotted)” value by setting is: (concentration 10 pM) 0.003425; (concentration 30 pM) 0.003325; (concentration 100 pM) -0.00015; (concentration 300 pM) -0.007; (concentration 1e-9 M) -0.0104; (concentration 3e-9 M) -0.01228. Moreover, the “Mean (plotted)” value runs as follows: (concentration 1e-8 M) -0.02818; (concentration 3e-8 M) -0.04678; (concentration 1e-7 M) -0.06592; (concentration 3e-7 M) -0.07783; (concentration 1e-6 M) -0.08315.
